Biological target: human σ1 receptor (Homo sapiens (Human), UniProt Q99720)
Experiment: Human σ1 receptor radioligand assay
Format: binding
Details: transfected HEK-293 membranes, [3H](+)-pentazocine radioligand
Experimental: Human σ1 Receptor Radioligand Assay
To investigate binding properties of test compounds to human σ1 receptor, transfected HEK-293 membranes and [^3H](+)-pentazocine (Perkin Elmer, NET-1056), as the radioligand, were used. The assay was carried out with 7 μg of membrane suspension, 5 nM of [^3H](+)-pentazocine in either absence or presence of either buffer or 10 μM Haloperidol for total and non-specific binding, respectively. Binding buffer contained Tris-HCl 50 mM at pH 8. Plates were incubated at 37° C. for 120 minutes. After the incubation period, the reaction mix was then transferred to MultiScreen HTS, FC plates (Millipore), filtered and plates were washed 3 times with ice-cold 10 mM Tris-HCL (pH7.4). Filters were dried and counted at approximately 40% efficiency in a MicroBeta scintillation counter (Perkin-Elmer) using EcoScint liquid scintillation cocktail

Sequence of human σ1 receptor (Q99720 whole entry): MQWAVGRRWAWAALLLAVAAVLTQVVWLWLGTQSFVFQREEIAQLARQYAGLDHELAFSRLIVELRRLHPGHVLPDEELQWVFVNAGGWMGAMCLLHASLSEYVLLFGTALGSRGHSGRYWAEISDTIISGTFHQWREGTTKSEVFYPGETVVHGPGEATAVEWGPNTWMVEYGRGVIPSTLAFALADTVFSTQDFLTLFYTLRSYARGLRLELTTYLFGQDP

SMILES | Ki
CCN1CC2(CN(CC(C)C)C2)O[C@H](C)C1=O [Example 38, (R)-8-ethyl-2-isobutyl-6-methyl-5-oxa-2,8-diazaspiro[3.5]nonan-7-one] | ≥ 0.5 µM
CCN1CC2(CCCN(CCC(C)C)CC2)OC2(CC2)C1=O (stereo not drawn) [Example 4, 13-ethyl-8-isopentyl-4-oxa-8,13-diazadispiro[2.1.6.3]tetradecan-14-one] | < 0.1 µM
CCN1CC2(CCCN(CCc3ccccc3)CC2)OC(C)(C)C1=O (stereo not drawn) [Example 30, 4-ethyl-2,2-dimethyl-9-phenethyl-1-oxa-4,9-diazaspiro[5.6]dodecan-3-one] | < 0.1 µM
CC(C)CN1CC2(C1)CN(C(C)C)C(=O)[C@@H](C)O2 [Example 42, (R)-2-isobutyl-8-isopropyl-6-methyl-5-oxa-2,8-diazaspiro[3.5]nonan-7-one] | ≥ 0.5 µM
CCN1CC2(CN(CC(C)(C)C)C2)O[C@@H](C)C1=O [Example 74, (S)-8-ethyl-6-methyl-2-neopentyl-5-oxa-2,8-diazaspiro[3.5]nonan-7-one] | ≥ 0.5 µM
CC(C)CCN1CCCC2(CC1)CN(Cc1ccccc1)CC1(CC1)O2 (stereo not drawn) [Example 84, 13-benzyl-8-isopentyl-4-oxa-8,13-diazadispiro[2.1.6.3]tetradecane] | < 0.1 µM
CC1(C)CN(C(=O)c2ccccc2)C[C@]2(CCCN(CCc3ccccc3)CC2)O1 [Example 94, (R)-(2,2-dimethyl-9-phenethyl-1-oxa-4,9-diazaspiro[5.6]dodecan-4-yl)(phenyl)methanone] | < 0.5 µM
CCN1C[C@]2(CCCN(Cc3ccccc3)CC2)OC2(CC2)C1=O [Example 92, (R)-8-benzyl-13-ethyl-4-oxa-8,13-diazadispiro[2.1.6.3]tetradecan-14-one] | < 0.1 µM
CCN1CC2(CCCN(Cc3ccccc3)CC2)OC(C)(C)C1=O (stereo not drawn) [Example 57, 9-benzyl-4-ethyl-2,2-dimethyl-1-oxa-4,9-diazaspiro[5.6]dodecan-3-one] | < 0.1 µM
c1ccc(CN2CCCC3(C2)CN(c2ccccc2)CC2(CC2)O3)cc1 (stereo not drawn) [Example 23, 7-benzyl-12-phenyl-4-oxa-7,12-diazadispiro[2.1.5.3]tridecane] | < 0.5 µM
c1ccc(CCN2CCCC3(C2)CN(Cc2ccccc2)CC2(CC2)O3)cc1 (stereo not drawn) [Example 79, 12-benzyl-7-phenethyl-4-oxa-7,12-diazadispiro[2.1.5.3]tridecane] | < 0.1 µM
CC(C)CCN1CCCC2(CC1)CN(C(=O)c1ccccc1)CC1(CC1)O2 (stereo not drawn) [Example 28, (8-isopentyl-4-oxa-8,13-diazadispiro[2.1.6.3]tetradecan-13-yl)(phenyl)methanone] | < 0.1 µM
CC(C)CN1CCCC2(C1)CN(Cc1ccccc1)CC1(CC1)O2 (stereo not drawn) [Example 81, 12-benzyl-7-isobutyl-4-oxa-7,12-diazadispiro[2.1.5.3]tridecane] | < 0.1 µM
CCN1CC2(CN(CCC(C)C)C2)O[C@@H](C)C1=O [Example 37, (S)-8-ethyl-2-isopentyl-6-methyl-5-oxa-2,8-diazaspiro[3.5]nonan-7-one] | ≥ 0.5 µM
O=C(c1ccccc1)N1CC2(CCCN(Cc3ccccc3)CC2)OC2(CC2)C1 (stereo not drawn) [Example 56, (8-benzyl-4-oxa-8,13-diazadispiro[2.1.6.3]tetradecan-13-yl)(phenyl)methanone] | < 0.1 µM
CC(C)CN1CC2(C1)CN(C(C)C)C(=O)[C@H](C)O2 [Example 43, (S)-2-isobutyl-8-isopropyl-6-methyl-5-oxa-2,8-diazaspiro[3.5]nonan-7-one] | ≥ 0.5 µM
CC(C)CCN1CCCC2(C1)CN(Cc1ccccc1)CC1(CC1)O2 (stereo not drawn) [Example 80, 12-benzyl-7-isopentyl-4-oxa-7,12-diazadispiro[2.1.5.3]tridecane] | < 0.1 µM
CCN1CC(C)(C)OC2(CCCN(CCc3ccccc3)CC2)C1 (stereo not drawn) [Example 87, 4-ethyl-2,2-dimethyl-9-phenethyl-1-oxa-4,9-diazaspiro[5.6]dodecane] | < 0.1 µM
O=C1N(Cc2ccccc2)CC2(CN(CCc3ccccc3)C2)OC12CC2 [Example 33, 10-benzyl-7-phenethyl-4-oxa-7,10-diazadispiro[2.1.3.3]undecan-11-one] | < 0.1 µM
CC(C)CN1CCCC2(CC1)CN(C(=O)c1ccccc1)CC1(CC1)O2 (stereo not drawn) [Example 29, (8-isobutyl-4-oxa-8,13-diazadispiro[2.1.6.3]tetradecan-13-yl)(phenyl)methanone] | < 0.5 µM
CCN1CC2(CN(CC(C)C)C2)O[C@@H](C)C1=O [Example 39, (S)-8-ethyl-2-isobutyl-6-methyl-5-oxa-2,8-diazaspiro[3.5]nonan-7-one] | ≥ 0.5 µM
c1ccc(CN2CCCC3(CC2)CN(c2ccccc2)CC2(CC2)O3)cc1 (stereo not drawn) [Example 21, 8-benzyl-13-phenyl-4-oxa-8,13-diazadispiro[2.1.6.3]tetradecane] | < 0.1 µM

Second part, the compound after the results:

Ki | SMILES
≥ 0.5 µM | CC(C)N1CC2(CN(CCC(C)(C)C)C2)O[C@@H](C)C1=O [Example 44, (S)-2-(3,3-dimethylbutyl)-8-isopropyl-6-methyl-5-oxa-2,8-diazaspiro[3.5]nonan-7-one]
≥ 0.5 µM | CCN1C[C@]2(CCCN(Cc3ccc(C#N)cc3)CC2)O[C@@H](C)C1=O [Example 70, 4-(((2S,6R)-4-ethyl-2-methyl-3-oxo-1-oxa-4,9-diazaspiro[5.6]dodecan-9-yl)methyl)benzonitrile]
≥ 0.5 µM | CC(C)N1CC2(CN(CC(C)(C)C)C2)O[C@@H](C)C1=O [Example 76, (S)-8-isopropyl-6-methyl-2-neopentyl-5-oxa-2,8-diazaspiro[3.5]nonan-7-one]
≥ 0.5 µM | CC(C)N1CC2(CN(CC(C)(C)C)C2)O[C@H](C)C1=O [Example 77, (R)-8-isopropyl-6-methyl-2-neopentyl-5-oxa-2,8-diazaspiro[3.5]nonan-7-one]
< 0.1 µM | c1ccc(CN2CCCC3(CC2)CN(Cc2ccccc2)CC2(CC2)O3)cc1 (stereo not drawn) [Example 82, 8,13-dibenzyl-4-oxa-8,13-diazadispiro[2.1.6.3]tetradecane]
≥ 0.5 µM | O=C(c1ccccc1)N1CC2(CC2)OC2(CN(CCc3ccccc3)C2)C1 [Example 91, (7-Phenethyl-4-oxa-7,10-diazadispiro[2.1.3.3]undecan-10-yl)(phenyl)methanone]
≥ 0.5 µM | CC(C)CN1CCCC2(C1)CN(C(=O)c1ccccc1)CC1(CC1)O2 (stereo not drawn) [Example 26, (7-isobutyl-4-oxa-7,12-diazadispiro[2.1.5.3]tridecan-12-yl)(phenyl)methanone]
≥ 0.5 µM | O=C(c1ccccc1)N1CC2(CC2)OC2(CCCN(Cc3ccccc3)C2)C1 (stereo not drawn) [Example 55, (7-benzyl-4-oxa-7,12-diazadispiro[2.1.5.3]tridecan-12-yl)(phenyl)methanone]
< 0.1 µM | CCN1CC2(CN(CCC(C)C)C2)OC2(CC2)C1=O [Example 6, 10-ethyl-7-isopentyl-4-oxa-7,10-diazadispiro[2.1.3.3]undecan-11-one]
≥ 0.5 µM | O=C1N(c2ccccc2)CC2(CCCN(Cc3ccccc3)C2)OC12CC2 (stereo not drawn) [Example 15, 7-benzyl-12-phenyl-4-oxa-7,12-diazadispiro[2.1.5.3]tridecan-13-one]
< 0.1 µM | c1ccc(CN2CCCC3(C2)CN(Cc2ccccc2)CC2(CC2)O3)cc1 (stereo not drawn) [Example 78, 7,12-dibenzyl-4-oxa-7,12-diazadispiro[2.1.5.3]tridecane]
< 0.1 µM | CCN1CC(C)(C)OC2(CCCN(CC(C)C)CC2)C1 (stereo not drawn) [Example 89, 4-ethyl-9-isobutyl-2,2-dimethyl-1-oxa-4,9-diazaspiro[5.6]dodecane]
≥ 0.5 µM | CC(C)CCN1CC2(C1)CN(C(C)C)C(=O)[C@@H](C)O2 [Example 40, (R)-2-isopentyl-8-isopropyl-6-methyl-5-oxa-2,8-diazaspiro[3.5]nonan-7-one]
≥ 0.5 µM | O=C(c1ccccc1)N1CC2(CC2)OC2(CCCN(CCc3ccccc3)C2)C1 (stereo not drawn) [Example 24, (7-phenethyl-4-oxa-7,12-diazadispiro[2.1.5.3]tridecan-12-yl)(phenyl)methanone]
< 0.1 µM | c1ccc(CCN2CCCC3(C2)CN(c2ccccc2)CC2(CC2)O3)cc1 (stereo not drawn) [Example 19, 7-phenethyl-12-phenyl-4-oxa-7,12-diazadispiro[2.1.5.3]tridecane]
≥ 0.5 µM | CCN1CC2(CN(CCOC(C)C)C2)OC2(CC2)C1=O [Example 35, 10-ethyl-7-(2-isopropoxyethyl)-4-oxa-7,10-diazadispiro[2.1.3.3]undecan-11-one]
≥ 0.5 µM | CC(C)OCCN1CCCC2(CC1)CN(C(=O)c1ccccc1)CC(C)(C)O2 (stereo not drawn) [Example 50, (9-(2-isopropoxyethyl)-2,2-dimethyl-1-oxa-4,9-diazaspiro[5.6]dodecan-4-yl)(phenyl)methanone]
< 0.5 µM | CCN1CC2(CCCN(CCC(C)C)CC2)OC(C)(C)C1=O (stereo not drawn) [Example 31, 4-ethyl-9-isopentyl-2,2-dimethyl-1-oxa-4,9-diazaspiro[5.6]dodecan-3-one]
≥ 0.5 µM | CCN1CC2(CCCN(Cc3ccccc3)C2)OC2(CC2)C1=O (stereo not drawn) [Example 11, 7-Benzyl-12-ethyl-4-oxa-7,12-diazadispiro[2.1.5.3]tridecan-13-one]
≥ 0.5 µM | CCN1C[C@@]2(CCCN(Cc3ccccc3)CC2)O[C@@H](C)C1=O [Example 61, (2S,6S)-9-benzyl-4-ethyl-2-methyl-1-oxa-4,9-diazaspiro[5.6]dodecan-3-one]
≥ 0.5 µM | CC(C)CCN1CC2(C1)CN(C(C)C)C(=O)[C@H](C)O2 [Example 41, (S)-2-isopentyl-8-isopropyl-6-methyl-5-oxa-2,8-diazaspiro[3.5]nonan-7-one]
≥ 0.5 µM | CCN1C[C@]2(CCCN(Cc3ccccc3)CC2)O[C@H](C)C1=O [Example 60, (2R,6R)-9-benzyl-4-ethyl-2-methyl-1-oxa-4,9-diazaspiro[5.6]dodecan-3-one]
< 0.5 µM | CCN1CC2(CCCN(CC(C)C)CC2)OC(C)(C)C1=O (stereo not drawn) [Example 32, 4-ethyl-9-isobutyl-2,2-dimethyl-1-oxa-4,9-diazaspiro[5.6]dodecan-3-one]
